Assay results from patent US10377770B2 (Novartis AG, priority 2015, dated 2019).

The compounds below were run against C-Raf FL (full length CRAF with Y340E and Y341E activating mutations, co-expressed with h14-3-3 zeta) (Homo sapiens (Human), UniProt P04049, Y340E/Y341E) (assay: In vitro Raf activity determination, AlphaScreen p-MEK readout, c-Raf (C-Raf FL)). Conditions: c-Raf approximately 4 nM, ATP 1 μM, pre-incubation 60 minutes, reaction 1 hour.
Assay type: biochemical
In short: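 Full-length C-Raf (~4 nM) pre-incubated 60 min at room temperature with compound and kinase-dead biotinylated MEK1 (~10 nM) in Tris pH 7.5, 15 mM MgCl2, BSA, DTT. Reaction started with 1 μM ATP and run 1 h at room temperature. Phospho-MEK detected by AlphaScreen with anti-p-MEK antibody.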

Chain of C-Raf FL (full length CRAF with Y340E and Y341E activating mutations, co-expressed with h14-3-3 zeta) (P04049 whole entry Y340E/Y341E): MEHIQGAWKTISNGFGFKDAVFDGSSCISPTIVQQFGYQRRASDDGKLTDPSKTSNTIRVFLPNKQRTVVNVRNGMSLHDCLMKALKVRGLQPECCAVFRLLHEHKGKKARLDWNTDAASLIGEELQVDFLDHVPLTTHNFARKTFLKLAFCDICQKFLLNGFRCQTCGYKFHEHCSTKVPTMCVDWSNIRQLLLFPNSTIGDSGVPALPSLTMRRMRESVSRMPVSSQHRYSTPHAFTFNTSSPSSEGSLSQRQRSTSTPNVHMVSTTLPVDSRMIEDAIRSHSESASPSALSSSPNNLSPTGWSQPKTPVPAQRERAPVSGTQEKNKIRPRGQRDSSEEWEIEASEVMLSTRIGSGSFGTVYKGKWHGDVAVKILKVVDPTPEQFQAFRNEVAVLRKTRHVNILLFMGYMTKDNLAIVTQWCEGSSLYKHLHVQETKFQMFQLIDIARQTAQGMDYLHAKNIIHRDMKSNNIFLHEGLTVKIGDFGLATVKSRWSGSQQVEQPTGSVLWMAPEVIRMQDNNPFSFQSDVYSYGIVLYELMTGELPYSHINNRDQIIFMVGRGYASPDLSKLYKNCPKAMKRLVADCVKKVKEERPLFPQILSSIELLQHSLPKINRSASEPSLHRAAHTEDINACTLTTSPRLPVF
Chain of C-Raf FL (full length CRAF with Y340E and Y341E activating mutations, co-expressed with h14-3-3 zeta) (P63104 whole entry partner): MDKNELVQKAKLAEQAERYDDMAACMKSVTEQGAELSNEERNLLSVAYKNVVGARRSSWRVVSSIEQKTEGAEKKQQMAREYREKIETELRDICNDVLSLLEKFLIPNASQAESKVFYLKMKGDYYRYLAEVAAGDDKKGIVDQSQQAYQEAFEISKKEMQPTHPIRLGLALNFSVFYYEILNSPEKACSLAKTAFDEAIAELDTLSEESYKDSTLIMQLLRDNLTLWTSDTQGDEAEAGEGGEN

Going from `CCN1C(=O)C2COCCN2c2cc(-c3cc(NC(=O)c4ccnc(C(F)(F)F)c4)ccc3C)cnc21` (racemic) [Example 113, rac-N-(3-(6-Ethyl-5-oxo-1,2,4,4a,5,6-hexahydropyrido[2′,3′:5,6]pyrazino[2,1-c][1,4]oxazin-9-yl)-4-methylphenyl)-2-(trifluoromethyl)isonicotinamide] to `CCN1C(=O)CC2COCCN2c2cc(-c3cc(NC(=O)c4ccnc(C(F)(F)F)c4)ccc3C)cnc21` (racemic) [Example 128, rac-N-(3-(7-Ethyl-6-oxo-1,2,4a,5,6,7-hexahydro-4H-[1,4]oxazino[4,3-d]pyrido[2,3-b][1,4]diazepin-10-yl)-4-methylphenyl)-2-(trifluoromethyl)isonicotinamide], the IC50 rises from 0.0084 nM to 0.023 nM (2.7-fold). The first is the more potent here.

Going from `Cc1ccc(NC(=O)c2ccnc(C(C)(F)F)c2)cc1-c1cnc2c(c1)N1CCOC[C@@H]1[C@H](CO)C2` (racemic) [Example 116, rac-trans-2-(1,1-Difluoroethyl)-N-(3-(5-(hydroxymethyl)-1,2,4,4a,5,6-hexahydro-[1,4]oxazino[4,3-a][1,5]naphthyridin-9-yl)-4-methylphenyl)isonicotinamide] to `Cc1ccc(NC(=O)c2ccnc(C(F)(F)F)c2)cc1-c1cnc2c(c1)N1CCOCC1C(CO)C2` (racemic) [Example 123, rac-cis-N-(3-(5-(hydroxymethyl)-1,2,4,4a,5,6-hexahydro-[1,4]oxazino[4,3-a][1,5]naphthyridin-9-yl)-4-methylphenyl)-2-(trifluoromethyl)isonicotinamide], the IC50 rises from less than 0.0017 nM to 0.0052 nM.

First: Cc1ncc(NC(=O)c2cccc(C(F)(F)F)c2)cc1-c1cnc2c(c1)N1CCOC[C@@H]1[C@H](CO)C2 (racemic) [Example 119, rac-trans-N-(5-(5-(Hydroxymethyl)-1,2,4,4a,5,6-hexahydro-[1,4]oxazino[4,3-a][1,5]naphthyridin-9-yl)-6-methylpyridin-3-yl)-3-(trifluoromethyl)benzamide]
Second: Cc1ncc(NC(=O)c2cccc(C(F)(F)F)c2)cc1-c1cnc2c(c1)N1CCOCC1C1(COC1)C2 (racemic) [Example 156, rac-N-(6-methyl-5-(2,4,4a,6-tetrahydro-1H-spiro[[1,4]oxazino[4,3-a][1,5]naphthyridine-5,3′-oxetan]-9-yl)pyridin-3-yl)-3-(trifluoromethyl)benzamide]
The IC50 of the first is 4.8-fold lower: 0.01 nM for the first, 0.048 nM for the second. The first is the more potent here.

First: Cc1ccc(NC(=O)c2ccnc(C(C)(F)F)c2)cc1-c1cnc2c(c1)N1CCOCC1CC(=O)N2 (racemic) [Example 124, rac-2-(1,1-Difluoroethyl)-N-(4-methyl-3-(6-oxo-1,2,4a,5,6,7-hexahydro-4H-[1,4]oxazino[4,3-d]pyrido[2,3-b][1,4]diazepin-10-yl)phenyl)isonicotinamide]
Second: CCN1C(=O)CC2COCCN2c2cc(-c3cc(NC(=O)c4ccnc(C(C)(F)F)c4)ccc3C)cnc21 (racemic) [Example 125, rac-2-(1,1-Difluoroethyl)-N-(3-(7-ethyl-6-oxo-1,2,4a,5,6,7-hexahydro-4H-[1,4]oxazino[4,3-d]pyrido[2,3-b][1,4]diazepin-10-yl)-4-methylphenyl)isonicotinamide]
The IC50 of the first is 3.6-fold lower: 0.0094 nM for the first, 0.034 nM for the second. The first is the more potent here.

`CCN1C(=O)CC2COCCN2c2cc(-c3cc(NC(=O)c4cccc(C(F)(F)F)c4)cnc3C)cnc21` (racemic) [Example 131, rac-N-(5-(7-Ethyl-6-oxo-1,2,4a,5,6,7-hexahydro-4H-[1,4]oxazino[4,3-d]pyrido[2,3-b][1,4]diazepin-10-yl)-6-methylpyridin-3-yl)-3-(trifluoromethyl)benzamide] and `Cc1ncc(NC(=O)c2ccnc(C(C)(F)F)c2)cc1-c1cnc2c(c1)N1CCOC[C@H]1C[C@@H]2O` (racemic) [Example 148, rac-cis-2-(1,1-difluoroethyl)-N-(5-(6-hydroxy-1,2,4,4a,5,6-hexahydro-[1,4]oxazino[4,3-a][1,5]naphthyridin-9-yl)-6-methylpyridin-3-yl)isonicotinamide] are within 1.5-fold of each other in IC50: 0.06 nM for the first, 0.046 nM for the second.

Going from `CCN1C(=O)C2COCCN2c2cc(-c3cc(NC(=O)c4ccnc(C(F)(F)F)c4)ccc3C)nnc21` (racemic) [Example 132, rac-N-(3-(5-Ethyl-6-oxo-5,6,6a,7,9,10-hexahydropyridazino[3′,4′:5,6]pyrazino[2,1-c][1,4]oxazin-2-yl)-4-methylphenyl)-2-(trifluoromethyl)isonicotinamide] to `Cc1ccc(NC(=O)c2ccnc(C(F)(F)F)c2)cc1-c1cc2c(nn1)OC(C)(C)C1COCCN21` (racemic) [Example 139, rac-N-(3-(6,6-dimethyl-6a,7,9,10-tetrahydro-6H-[1,4]oxazino[4,3-d]pyridazino[3,4-b][1,4]oxazin-2-yl)-4-methylphenyl)-2-(trifluoromethyl)isonicotinamide], the IC50 falls from 0.14 nM to 0.057 nM (2.5-fold). The second is the more potent here.

`Cc1ccc(NC(=O)c2ccnc(C(C)(F)F)c2)cc1-c1cc2c(nn1)OCC1COCCN21` (racemic) [Example 135, rac-2-(1,1-Difluoroethyl)-N-(4-methyl-3-(6a,7,9,10-tetrahydro-6H-[1,4]oxazino[4,3-d]pyridazino[3,4-b][1,4]oxazin-2-yl)phenyl)isonicotinamide] and `Cc1ccc(NC(=O)c2ccnc(C(C)(F)F)c2)cc1-c1cc2c(nn1)OC(C)(C)C1COCCN21` (racemic) [Example 136, rac-2-(1,1-Difluoroethyl)-N-(3-(6,6-dimethyl-6a,7,9,10-tetrahydro-6H-[1,4]oxazino[4,3-d]pyridazino[3,4-b][1,4]oxazin-2-yl)-4-methylphenyl)isonicotinamide] are within 1.5-fold of each other in IC50: 0.019 nM for the first, 0.018 nM for the second.

Going from `Cc1ccc(NC(=O)c2ccnc(C(C)(C)F)c2)cc1-c1cnc2c(c1)N1CCOC[C@H]1C[C@@H]2O` (racemic) [Example 141, rac-cis-2-(2-fluoropropan-2-yl)-N-(3-(6-hydroxy-1,2,4,4a,5,6-hexahydro-[1,4]oxazino[4,3-a][1,5]naphthyridin-9-yl)-4-methylphenyl)isonicotinamide] to `Cc1ccc(NC(=O)c2ccnc(C(C)(C)C#N)c2)cc1-c1cnc2c(c1)N1CCOC[C@H]1C[C@@H]2O` (racemic) [Example 149, rac-cis-2-(2-cyanopropan-2-yl)-N-(3-(6-hydroxy-1,2,4,4a,5,6-hexahydro-[1,4]oxazino[4,3-a][1,5]naphthyridin-9-yl)-4-methylphenyl)isonicotinamide], the IC50 rises from 0.0042 nM to 0.013 nM (3.1-fold). The first is the more potent here.

`Cc1ccc(NC(=O)c2cncc(C(F)(F)F)c2)cc1-c1cnc2c(c1)N1CCOC[C@H]1C[C@@H]2O` (racemic) [Example 144, rac-cis-N-(3-(6-hydroxy-1,2,4,4a,5,6-hexahydro-[1,4]oxazino[4,3-a][1,5]naphthyridin-9-yl)-4-methylphenyl)-5-(trifluoromethyl)nicotinamide] and `Cc1ccc(NC(=O)c2cc(C(F)(F)F)ccn2)cc1-c1cnc2c(c1)N1CCOC[C@H]1C[C@@H]2O` (racemic) [Example 147, rac-cis-N-(3-(6-hydroxy-1,2,4,4a,5,6-hexahydro-[1,4]oxazino[4,3-a][1,5]naphthyridin-9-yl)-4-methylphenyl)-4-(trifluoromethyl)picolinamide] are within 1.5-fold of each other in IC50: 0.0023 nM for the first, 0.0026 nM for the second.

`Cc1ccc(NC(=O)c2ccnc(C(C)(F)F)c2)cc1-c1cnc2c(c1)N1CCOCC1C1(COC1)C2` (racemic) [Example 152, rac-2-(1,1-difluoroethyl)-N-(4-methyl-3-(2,4,4a,6-tetrahydro-1H-spiro[[1,4]oxazino[4,3-a][1,5]naphthyridine-5,3′-oxetan]-9-yl)phenyl)isonicotinamide] showed an IC50 of 0.011 nM.
